Test results from patent publication US7307044B2, “3-biphenyl-substituted-3-substituted-4-ketolactam and ketolactone and their utilization as pesticide” (Bayer CropScience AG, priority 2001, dated 2007).

What was measured:
[1] = system: larvae of the mustard beetle (Phaedon cochleariae); experiment: Phaedon larvae test; format: in vivo; settings: cabbage leaves dipped
Procedure: (§1) Phaedon Larvae Test Solvent: 7 parts by weight of dimethylformamide Emulsifier: 2 parts by weight of alkylaryl polyglycol ether To produce a suitable preparation of active compound, 1 part by weight of active compound is mixed with the stated amounts of solvent and emulsifier, and the concentrate is diluted with emulsifier-containing water to the desired concentration. Cabbage leaves (Brassica oleracea) are treated by being dipped into the preparation of active compound of the desired concentration and are populated with larvae of the mustard beetle (Phaedon cochleariae) while the leaves are still moist. After the desired period of time, the kill in % is determined. 100% means that all beetle larvae have been killed; 0% means that none of the beetle larvae have been killed.

[2] = system: caterpillars of the diamondback moths (Plutella xylostella); experiment: Plutella test; format: in vivo; settings: 500 ppm, cabbage leaves dipped
Procedure: as §1, with “Plutella” for “Phaedon Larvae”, “caterpillars” for “larvae”, “diamondback moths (Plutella xylostella)” for “mustard beetle (Phaedon cochleariae)”, “caterpillars” for “beetle larvae”

[3] = system: caterpillars of the armyworm (Spodoptera frugiperda); experiment: Spodoptera frugiperda test; format: in vivo; settings: cabbage leaves dipped
Procedure: as §1, with “Spodoptera frugiperda” for “Phaedon Larvae”, “caterpillars” for “larvae”, “armyworm (Spodoptera frugiperda)” for “mustard beetle (Phaedon cochleariae)”, “caterpillars” for “beetle larvae”

[4] = system: greenhouse red spider mite (Tetranychus urticae); experiment: Tetranychus test (OP-resistent/dip treatment); format: in vivo; settings: 100 ppm, bean plants dipped
Procedure: Tetranychus Test (OP-Resistent/Dip Treatment)
Solvent: 7 parts by weight of dimethylformamide
Emulsifier: 2 parts by weight of alkylaryl polyglycol ether
To produce a suitable preparation of active compound, 1 part by weight of active compound is mixed with the stated amounts of solvent and emulsifier, and the concentrate is diluted with emulsifier-containing water to the desired concentration.
Bean plants (Phaseolus vulgaris) which are heavily infested by all stages of the greenhouse red spider mite (Tetranychus urticae) are dipped into a preparation of active compound of the desired concentration.
After the desired period of time, the effect in % is determined. 100% means that all spider mites have been killed; 0% means that none of the spider mites have been killed.

Plasmopara viticola = experiment: Plasmopara test (grapevine)/protective; format: in vivo; settings: protective, 100 g/ha, evaluation 6 days after inoculation
Procedure: Plasmopara Test (Grapevine)/Protective Solvents: 24.5 parts by weight of acetone • 24.5 parts by weight of dimethylacetamide Emulsifier: 1.0 part by weight of alkylaryl polyglycol ether To produce a suitable preparation of active compound, 1 part by weight of active compound is mixed with the stated amounts of solvent and emulsifier, and the concentrate is diluted with water to the desired concentration. To test for protective activity, young plants are sprayed with the preparation of active compound at the stated application rate. After the spray coating has dried on, the plants are inoculated with an aqueous spore suspension of Plasmopara viticola and then remain in an incubation cabin at 20° C. and 100% relative atmospheric humidity for 1 day. The plants are then placed in a greenhouse at about 21° C. and about 90% atmospheric humidity for 4 days. The plants are then moistened and placed in an incubation cabin for 1 day.

physchem = format: physicochemical; settings: for log P: pH 2.3
Procedure: The stated log P values were determined in accordance with EEC Directive 79/831 Annex V.A8 by HPLC (High Performance Liquid Chromatography) using a reversed-phase column (C 18). Temperature: 43° C. • (a) Mobile phases for the determination in the acidic range: 0.1% aqueous phosphoric acid, acetonitrile; linear gradient from 10% acetonitrile to 90% acetonitrile. • (b) Mobile phases for the determination in the neutral range: 0.01 molar aqueous phosphate buffer solution, acetonitrile; linear gradient from 10% acetonitrile to 90% acetonitrile.
Calibration was carried out using unbranched alkan-2-ones (of 3 to 16 carbon atoms) with known log P values (determination of the log P values by the retention times using linear interpolation between two successive alkanones).

[5] = system: green peach aphid (Myzus persicae); experiment: Myzus test; format: in vivo; settings: 500 ppm, cabbage leaves dipped
Procedure: as §1, with “Myzus” for “Phaedon Larvae”, “oleracea) which are heavily infested by the green peach aphid (Myzus persicae)” for “oleracea)”, “concentration.” for “concentration and are populated with larvae of the mustard beetle (Phaedon cochleariae) while the leaves are still moist.”, “aphids” for “beetle larvae”

[6] = system: caterpillars of the armyworm (Spodoptera exigua); experiment: Spodoptera exigua test; format: in vivo; settings: 500 ppm, cabbage leaves dipped
Procedure: as §1, with “Spodoptera exigua” for “Phaedon Larvae”, “caterpillars” for “larvae”, “armyworm (Spodoptera exigua)” for “mustard beetle (Phaedon cochleariae)”, “caterpillars” for “beetle larvae”

Alopecurus = experiment: Post-emergence test (greenhouse); format: in vivo; settings: 250 g ai/ha, after three weeks
Procedure: (§2) Solvent: 5 parts by weight of acetone
(§3) Emulsifier: 1 part by weight of alkylaryl polyglycol ether
(§4) To produce a suitable preparation of active compound, 1 part by weight of active compound is mixed with the stated amount of solvent, the stated amount of emulsifier is added and the concentrate is diluted with water to the desired concentration.
(§5) Test plants of a height of 5-15 cm are sprayed with the preparation of active compound such that the particular amounts of active compound desired are applied per unit area. The concentration of the spray liquor is chosen such that the particular amounts of active compound desired are applied in 1000 l of water/ha.
(§6) After three weeks, the degree of damage to the plants is rated in % damage in comparison to the development of the untreated control.
(§7) The figures denote: • 0%=no effect (like untreated control) • 100%=total destruction

Avena fatua = experiment: Post-emergence test (greenhouse); format: in vivo; settings: 250 g ai/ha, after three weeks
Procedure: as §2, §3, §4, §5, §6, §7

Echinochloa = experiment: Post-emergence test (greenhouse); format: in vivo; settings: 250 g ai/ha, after three weeks
Procedure: as §2, §3, §4, §5, §6, §7

Setaria = experiment: Post-emergence test (greenhouse); format: in vivo; settings: 250 g ai/ha, after three weeks
Procedure: as §2, §3, §4, §5, §6, §7

Amaranthus = experiment: Post-emergence test (greenhouse); format: in vivo; settings: 250 g ai/ha, after three weeks
Procedure: as §2, §3, §4, §5, §6, §7

[7] = system: apple scab pathogen Venturia inaequalis; experiment: Venturia test (apple)/protective; format: in vivo; settings: protective, 100 g/ha, evaluation 10 days after inoculation
Procedure: Venturia Test (Apple)/Protective Solvents: 24.5 parts by weight of acetone • 24.5 parts by weight of dimethylacetamide Emulsifier: 1.0 part by weight of alkylaryl polyglycol ether To produce a suitable preparation of active compound, 1 part by weight of active compound is mixed with the stated amounts of solvent and emulsifier, and the concentrate is diluted with water to the desired concentration. To test for protective activity, young plants are sprayed with the preparation of active compound at the stated application rate. After the spray coating has dried on, the plants are inoculated with an aqueous conidia suspension of the apple scab pathogen Venturia inaequalis and then remain in an incubation cabin at about 20° C. and 100% relative atmospheric humidity for 1 day. The plants are then placed in a greenhouse at about 21° C. and a relative atmospheric humidity of about 90%.

Sugar beet = experiment: Post-emergence test (greenhouse); format: in vivo; settings: 250 g ai/ha, after three weeks
Procedure: as §2, §3, §4, §5, §6, §7

| log P (physchem) | SMILES | Kill rate in % after 7 d ([1]; 500 ppm) | Kill rate in % after 7 d ([3]; 500 ppm) | Kill rate in % after 7 d [4] | Kill rate in % after 6 d [5] | degree of damage to the plants in % damage (Alopecurus) | degree of damage to the plants in % damage (Avena fatua) | degree of damage to the plants in % damage (Echinochloa) | degree of damage to the plants in % damage (Setaria) | also measured |
| --- | --- | --- | --- | --- | --- | --- | --- | --- | --- | --- |
| – | COC1CCC2(CC1)NC(=O)C(Cl)(c1cc(-c3cccc(Cl)c3)ccc1Cl)C2=O (stereo not shown) [Ex. I-1-12] | 100% | 100% | 100% | – | – | – | – | – | Kill rate in % after 7 d [2]: 100%; % efficacy (Plasmopara viticola): 94% |
| – | Cc1ccc(-c2ccc(Cl)cc2)cc1C1(Cl)C(=O)SC2(CCCCC2)C1=O (stereo not shown) [Ex. I-3-1] | 100% | – | – | – | – | – | – | – | – |
| log P 5.61 | Cc1ccc(-c2ccc(Cl)cc2)cc1C1(Cl)C(=O)OC(C)(C(C)C)C1=O (stereo not shown) [I-2-5] | – | – | – | – | – | – | – | – | – |
| – | Cc1ccc(-c2ccc(Cl)c(Cl)c2)cc1C1(Cl)C(=O)NC(C)(C)C1=O (stereo not shown) [Ex. I-1-15] | 100% | 100% | 99% | 95% | – | – | – | – | Kill rate in % after 7 d [2]: 100%; Kill rate in % after 7 d [6]: 100% |
| log P 4.91 | Cc1cc(-c2ccc(Cl)cc2)cc(C)c1C1(Cl)C(=O)OC2(CCCOC2)C1=O (stereo not shown) [I-2-17] | – | – | – | – | – | – | – | – | – |
| – | Cc1ccc(-c2cccc(Cl)c2)cc1C1(Cl)C(=O)NC(C)(C)C1=O (stereo not shown) [Ex. I-1-3] | 100% | – | – | – | – | – | – | – | – |
| log P 5.59 | CCOC1CCC2(CC1)OC(=O)C(Cl)(c1c(C)cc(-c3ccc(Cl)cc3)cc1CC)C2=O (stereo not shown) [I-2-13] | – | – | – | – | – | – | – | – | – |
| log P 5.11 | Cc1cc(-c2ccc(Cl)cc2)cc(C)c1C1(Cl)C(=O)OC(C)(C)C1=O (stereo not shown) [I-2-14] | – | – | – | – | – | – | – | – | – |
| log P 5.05 | CCc1ccc(-c2ccc(Cl)cc2)cc1C1(Cl)C(=O)OC(C)(C)C1=O (stereo not shown) [I-2-7] | – | – | – | – | – | – | – | – | – |
| log P 5.56 | Cc1cc(C)c(C2(Cl)C(=O)OC3(CCCC3)C2=O)cc1-c1ccc(Cl)cc1 (stereo not shown) [I-2-6] | – | – | – | – | – | – | – | – | – |
| – | COC1CCC2(CC1)NC(=O)C(Cl)(c1cc(-c3ccc(Cl)c(Cl)c3)ccc1C)C2=O (stereo not shown) [Ex. I-1-13] | 100% | 100% | 95% | 100% | 95% | 90% | 100% | 90% | Kill rate in % after 7 d [2]: 100%; Kill rate in % after 7 d [6]: 100%; % efficacy (Plasmopara viticola): 94% |
| – | Cc1cc(C)c(C2(Cl)C(=O)NC3(CCOCC3)C2=O)cc1-c1ccc(Cl)cc1 (stereo not shown) [Ex. I-1-6] | 100% | 100% | 99% | 98% | 70% | 100% | 100% | 95% | degree of damage to the plants in % damage (Amaranthus): 70%; % efficacy (Plasmopara viticola): 94%; % efficacy [7]: 99% |
| – | Cc1ccc(-c2ccc(Cl)cc2)cc1C1(Cl)C(=O)NC(C)(C(C)C)C1=O (stereo not shown) [Ex. I-1-11] | 100% | 100% | 99% | – | 95% | 90% | 100% | 100% | Kill rate in % after 7 d [2]: 100%; Kill rate in % after 7 d [6]: 90%; degree of damage to the plants in % damage (Sugar beet): 0%; % efficacy (Plasmopara viticola): 100%; % efficacy [7]: 100% |
| – | Cc1cc(C)c(C2(Cl)C(=O)NC3(CCCOC3)C2=O)cc1-c1ccc(Cl)cc1 (stereo not shown) [Ex. I-1-7] | 100% | 100% | 98% | 100% | 90% | 95% | 100% | 100% | – |
| – | CCOC1CCC2(CC1)NC(=O)C(Cl)(c1c(C)cc(-c3ccc(Cl)cc3)cc1Cl)C2=O (stereo not shown) [Ex. I-1-9] | 100% | – | – | 95% | 95% | 100% | 100% | 100% | – |
| – | Cc1ccc(-c2ccc(Cl)cc2)cc1C1(Cl)C(=O)NC2(CCOCC2)C1=O (stereo not shown) [Ex. I-1-14] | 100% | 100% | 99% | 100% | 80% | 100% | 100% | 100% | degree of damage to the plants in % damage (Sugar beet): 0%; % efficacy (Plasmopara viticola): 100% |
| log P 4.30 | Cc1ccc(-c2cccc(F)c2)cc1C1(Cl)C(=O)OC(C)(C)C1=O (stereo not shown) [I-2-11] | – | – | – | – | – | – | – | – | – |
| – | Cc1ccc(-c2ccc(Cl)cc2)cc1C1(Cl)C(=O)OC(C)(C)C1=O (stereo not shown) [Ex. I-2-1] | – | – | 98% | – | – | – | – | – | Kill rate in % after 7 d ([1]; 1000 ppm): 100%; Kill rate in % after 7 d ([3]; 1000 ppm): 100%; chromatographic logP (physchem; pH 2.5): 4.8 |
